The source of these data is patent US12398154B2, “Azaquinazoline pan-KRas inhibitors” (Mirati Therapeutics, Inc., priority 2020, dated 2025).

One assay deals with KRas G12D (Homo sapiens, UniProt P01116, G12D). Kind of assay: biochemical.
Another assay deals with KRas G12V (Homo sapiens, UniProt P01116, G12V). Nature of the assay: biochemical.
For another assay, the target named is KRas G12R (Homo sapiens, UniProt P01116, G12R). Kind of assay: biochemical.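 Further: TR-FRET displacement assay of compound binding to KRas, read after one hour at room temperature, potency from a four-parameter fit of percent-of-control values.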
The test system of a further assay is pERK in ASPC1 cells. Kind of assay: Inhibition of KRas phosphorylation of ERK (Cisbio HTRF pERK assay). To be noted: Homo sapiens, ASPC1, read-out: Inhibition (HTRF IC50) of KRas-mediated Phosphorylation of ERK, AsPC-1.
The next assay relates to pERK in HCT116 cells. The assay is described as above. To be noted: Homo sapiens, HCT-116, read-out: Inhibition (HTRF IC50) of KRas-mediated Phosphorylation of ERK, HCT116.
The test system of another assay is pERK in MKN1 cells. The description is as above. The following applies: Homo sapiens, MKN-1, 3 h, read-out: Inhibition (HTRF IC50) of KRas-mediated Phosphorylation of ERK, MKN1. (Time-resolved FRET reads energy transfer from a long-lived donor to a nearby acceptor.)
Another assay concerns pERK in PSN1 cells. The description is as above. The following applies: Homo sapiens, PSN1, 3 h, read-out: Inhibition (HTRF IC50) of KRas-mediated Phosphorylation of ERK, PSN1.
A further assay deals with pERK in H727 cells. The assay is described as above. The following applies: Homo sapiens, NCI-H727, read-out: Inhibition (HTRF IC50) of KRas-mediated Phosphorylation of ERK, H727.

KRas G12R, sequence (P01116 1-169 isoform P01116-2 G12R): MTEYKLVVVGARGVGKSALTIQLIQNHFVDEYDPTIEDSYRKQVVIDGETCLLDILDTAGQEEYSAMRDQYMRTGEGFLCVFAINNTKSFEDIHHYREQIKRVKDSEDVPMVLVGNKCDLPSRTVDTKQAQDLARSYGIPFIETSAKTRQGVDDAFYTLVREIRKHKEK
KRas G12D, sequence (P01116 1-169 isoform P01116-2 G12D): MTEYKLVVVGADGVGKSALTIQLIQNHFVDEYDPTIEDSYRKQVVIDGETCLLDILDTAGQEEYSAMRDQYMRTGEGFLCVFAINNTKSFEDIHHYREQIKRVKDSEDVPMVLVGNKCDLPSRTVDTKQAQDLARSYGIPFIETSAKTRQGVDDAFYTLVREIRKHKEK
KRas G12V, sequence (P01116 1-169 isoform P01116-2 G12V): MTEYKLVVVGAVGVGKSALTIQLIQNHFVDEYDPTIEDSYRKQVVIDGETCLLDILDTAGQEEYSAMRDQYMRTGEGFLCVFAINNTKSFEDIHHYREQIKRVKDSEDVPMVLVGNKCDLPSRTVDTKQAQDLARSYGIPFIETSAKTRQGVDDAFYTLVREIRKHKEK

Turning to `CCc1c(F)ccc2cc(O)cc(-c3ncc4c(NCC(N)CC(=O)O)nc(OC[C@@]56CCCN5C[C@H](F)C6)nc4c3F)c12` (single isomer, unassigned) [Example 374], the IC50 at KRas G12D is at most 2 nM; against KRas G12V, 9 nM; against KRas G12R it was 15 nM; in the assay with pERK in ASPC1 cells, 9380 nM; in the assay on pERK in HCT116 cells it was at least 10000 nM.
Consider `CCc1c(F)ccc2cc(O)cc(-c3ncc4c(NCCC5CNC(=O)C5)nc(OC[C@@]56CCCN5C[C@H](F)C6)nc4c3F)c12` (stereo partly drawn) [Example 376, 4-(2-((7-(8-ethyl-7-fluoro-3-hydroxynaphthalen-1-yl)-8-fluoro-2-(((2R,7aS)-2-fluorotetrahydro-1H-pyrrolizin-7a(5H)-yl)methoxy)pyrido[4,3-d]pyrimidin-4-yl)amino)ethyl)pyrrolidin-2-one], for which the IC50 against KRas G12D is 16 nM; at KRas G12V it was 3 nM; against KRas G12R, 4 nM; with pERK in ASPC1 cells, at least 10000 nM; in the assay on pERK in HCT116 cells, 6490 nM.
Consider `O=C1NC(=O)C2CN(c3nc(OC[C@@]45CCCN4C[C@H](F)C5)nc4c(F)c(-c5cc(O)cc6ccc(F)c(Cl)c56)ncc34)CC12` (stereo partly drawn) [Example 423, 5-(7-(8-chloro-7-fluoro-3-hydroxynaphthalen-1-yl)-8-fluoro-2-(((2R,7aS)-2-fluorohexahydro-1H-pyrrolizin-7a-yl)methoxy)pyrido[4,3-d]pyrimidin-4-yl)tetrahydropyrrolo[3,4-c]pyrrole-1,3(2H,3aH)-dione], for which the IC50 was at most 2 nM against KRas G12D; at most 2 nM against KRas G12V; at most 2 nM against KRas G12R; 110 nM in the assay on pERK in MKN1 cells; at least 10000 nM with pERK in PSN1 cells; 556 nM with pERK in ASPC1 cells. Besides, in the assay on pERK in H727 cells, the IC50 came out at 2220 nM.
For the compound `O=C1NCC12CCCN(c1nc(OC[C@@]34CCCN3C[C@H](F)C4)nc3c(F)c(-c4cc(O)cc5ccc(F)c(Cl)c45)ncc13)C2` (stereo partly drawn) [Example 424, 6-(7-(8-chloro-7-fluoro-3-hydroxynaphthalen-1-yl)-8-fluoro-2-(((2R,7aS)-2-fluorohexahydro-1H-pyrrolizin-7a-yl)methoxy)pyrido[4,3-d]pyrimidin-4-yl)-2,6-diazaspiro[3.5]nonan-1-one], the IC50 on KRas G12D is 3 nM; on KRas G12V, 4 nM; against KRas G12R, 8 nM; with pERK in MKN1 cells it was 95 nM; in the assay on pERK in PSN1 cells, 2820 nM; in the assay with pERK in ASPC1 cells, 817 nM. The IC50 in the assay with pERK in H727 cells amounted to 1300 nM.
As for `Nc1cc2n(n1)CCCN(c1nc(OC[C@@]34CCCN3C[C@H](F)C4)nc3c(F)c(-c4cc(O)cc5ccc(F)c(Cl)c45)ncc13)C2` [Example 426, 4-(4-(2-amino-7,8-dihydro-4H-pyrazolo[1,5-a][1,4]diazepin-5(6H)-yl)-8-fluoro-2-(((2R,7aS)-2-fluorohexahydro-1H-pyrrolizin-7a-yl)methoxy)pyrido[4,3-d]pyrimidin-7-yl)-5-chloro-6-fluoronaphthalen-2-ol], the concentration for half-maximal inhibition (IC50) against KRas G12D was at most 2 nM; on KRas G12V, at most 2 nM; against KRas G12R, at most 2 nM; with pERK in MKN1 cells, 264 nM; in the assay on pERK in PSN1 cells it was at least 10000 nM; with pERK in ASPC1 cells, 652 nM. Also, in the assay with pERK in H727 cells, the IC50 was 1220 nM.
`CCc1c(F)ccc2cc(O)cc(-c3ncc4c(N5CCCC6(C5)C[S+]([O-])C6)nc(OC[C@@]56CCCN5C[C@H](F)C6)nc4c3F)c12` (stereo partly drawn) [Example 484, 6-(7-(8-ethyl-7-fluoro-3-hydroxynaphthalen-1-yl)-8-fluoro-2-(((2R,7aS)-2-fluorohexahydro-1H-pyrrolizin-7a-yl)methoxy)pyrido[4,3-d]pyrimidin-4-yl)-2-thia-6-azaspiro[3.5]nonane 2-oxide]: the IC50 against KRas G12D is 23 nM; at KRas G12V it was 28 nM; on KRas G12R it was 48 nM; in the assay on pERK in MKN1 cells it was 1060 nM; in the assay on pERK in PSN1 cells, at least 10000 nM; with pERK in ASPC1 cells, 4860 nM. Also, the IC50 in the assay on pERK in H727 cells was found to be 3030 nM.
For `CCc1c(F)ccc2cc(O)cc(-c3ncc4c(N5C[C@H](O)CC[C@H](O)C5)nc(OC[C@@]56CCCN5C[C@H](F)C6)nc4c3F)c12` [Example 491, (3R,6S)-1-(7-(8-ethyl-7-fluoro-3-hydroxynaphthalen-1-yl)-8-fluoro-2-(((2R,7aS)-2-fluorohexahydro-1H-pyrrolizin-7a-yl)methoxy)pyrido[4,3-d]pyrimidin-4-yl)azepane-3,6-diol], the IC50 on KRas G12D is 4 nM; against KRas G12V, 4 nM; against KRas G12R, 6 nM; in the assay on pERK in MKN1 cells, 182 nM; with pERK in PSN1 cells, at least 10000 nM; in the assay with pERK in ASPC1 cells, 1700 nM. Further, the IC50 in the assay with pERK in H727 cells is 1530 nM.
With `CCc1c(F)ccc2cc(O)cc(-c3ncc4c(N5CCOCC6(CCOCC6)C5)nc(OC[C@@]56CCCN5C[C@H](F)C6)nc4c3F)c12` [Example 500, 5-ethyl-6-fluoro-4-(8-fluoro-2-(((2R,7aS)-2-fluorohexahydro-1H-pyrrolizin-7a-yl)methoxy)-4-(3,8-dioxa-11-azaspiro[5.6]dodecan-11-yl)pyrido[4,3-d]pyrimidin-7-yl)naphthalen-2-ol], the IC50 was 235 nM against KRas G12D; 104 nM on KRas G12V; 103 nM at KRas G12R; 239 nM with pERK in MKN1 cells; at least 10000 nM with pERK in PSN1 cells; 1100 nM with pERK in ASPC1 cells. The IC50 in the assay with pERK in H727 cells amounted to 1900 nM.
For the compound `CCc1c(F)ccc2cc(O)cc(-c3ncc4c(N5CCCOC(C)(C)C5)nc(OC[C@@]56CCCN5C[C@H](F)C6)nc4c3F)c12` [Example 501, 4-(4-(2,2-dimethyl-1,4-oxazepan-4-yl)-8-fluoro-2-(((2R,7aS)-2-fluorohexahydro-1H-pyrrolizin-7a-yl)methoxy)pyrido[4,3-d]pyrimidin-7-yl)-5-ethyl-6-fluoronaphthalen-2-ol], the IC50 is 606 nM against KRas G12D; 169 nM against KRas G12V; 176 nM on KRas G12R; 225 nM in the assay on pERK in MKN1 cells; at least 10000 nM with pERK in PSN1 cells; 2060 nM in the assay on pERK in ASPC1 cells. Besides, the IC50 with pERK in H727 cells turned out to be 3230 nM.
For `CCc1c(F)ccc2cc(O)cc(-c3ncc4c(N5CCOC6(CCS(=O)(=O)CC6)C5)nc(OC[C@@]56CCCN5C[C@H](F)C6)nc4c3F)c12` [Example 502, 4-(7-(8-ethyl-7-fluoro-3-hydroxynaphthalen-1-yl)-8-fluoro-2-(((2R,7aS)-2-fluorohexahydro-1H-pyrrolizin-7a-yl)methoxy)pyrido[4,3-d]pyrimidin-4-yl)-1-oxa-9-thia-4-azaspiro[5.5]undecane 9,9-dioxide], the IC50 on KRas G12D is 638 nM; against KRas G12V it was 457 nM; against KRas G12R, 607 nM; in the assay with pERK in MKN1 cells, 1940 nM; in the assay with pERK in PSN1 cells it was at least 10000 nM; in the assay on pERK in ASPC1 cells, 2100 nM. For the same compound, the half-inhibitory concentration (IC50) in the assay on pERK in H727 cells turned out to be 6460 nM.
For `CCc1c(F)ccc2cc(O)cc(-c3ncc4c(N5CCOC6(CCS(=N)(=O)CC6)C5)nc(OC[C@@]56CCCN5C[C@H](F)C6)nc4c3F)c12` (stereo partly drawn) [Example 503, 4-(7-(8-ethyl-7-fluoro-3-hydroxynaphthalen-1-yl)-8-fluoro-2-(((2R,7aS)-2-fluorohexahydro-1H-pyrrolizin-7a-yl)methoxy)pyrido[4,3-d]pyrimidin-4-yl)-9-imino-1-oxa-9-thia-4-azaspiro[5.5]undecane 9-oxide], the IC50 against KRas G12D is 305 nM; on KRas G12V, 82 nM; against KRas G12R, 124 nM; in the assay with pERK in MKN1 cells, at least 10000 nM; in the assay with pERK in PSN1 cells it was at least 10000 nM; in the assay with pERK in ASPC1 cells, at least 10000 nM. Further, the IC50 with pERK in H727 cells is at least 10000 nM.
Regarding `CCc1c(F)ccc2cc(O)cc(-c3ncc4c(N5CCCC6(CC(=O)N6)C5)nc(OCC5(CN(C)C)CC5)nc4c3F)c12` (stereo not drawn) [Example 513, 6-(2-((1-((dimethylamino)methyl)cyclopropyl)methoxy)-7-(8-ethyl-7-fluoro-3-hydroxynaphthalen-1-yl)-8-fluoropyrido[4,3-d]pyrimidin-4-yl)-1,6-diazaspiro[3.5]nonan-2-one], the IC50 is at most 2 nM at KRas G12D; at most 2 nM at KRas G12V; 3 nM against KRas G12R; 221 nM with pERK in MKN1 cells; at least 10000 nM in the assay on pERK in PSN1 cells; 1310 nM with pERK in ASPC1 cells. Also, in the assay with pERK in H727 cells, the IC50 was 869 nM.
`CN(C)CC1(COc2nc(N3CCC[C@@](C)(O)C3)c3cnc(-c4cc(O)cc(Cl)c4C4CC4)c(F)c3n2)CC1` [Example 517, (R)-1-(7-(3-chloro-2-cyclopropyl-5-hydroxyphenyl)-2-((1-((dimethylamino)methyl)cyclopropyl)methoxy)-8-fluoropyrido[4,3-d]pyrimidin-4-yl)-3-methylpiperidin-3-ol]: the IC50 against KRas G12D was at most 2 nM; against KRas G12V, 3 nM; against KRas G12R, 6 nM; with pERK in MKN1 cells, 42 nM; in the assay with pERK in PSN1 cells it was at least 10000 nM; in the assay with pERK in ASPC1 cells it was 203 nM. Moreover, the IC50 in the assay with pERK in H727 cells is 321 nM.

As usually defined, the IC50 is the midpoint of a concentration-inhibition curve.
